Laboratory results as given in PubChem BioAssay AID248 (DTP/NCI, 2004).
Toxic doses and inconclusive results are not listed. Rule as the data show it: active = T/C of 150% or more; inactive = T/C below 125%.

System: L1210 leukemia ip in BDF1 mice, survival T/C
Test: NCI In Vivo Anticancer Drug Screen. Data for tumor model L1210 Leukemia (intraperitoneal) in B6D2F1 (BDF1) mice
Conditions: higher = longer survival
In short: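 Antitumor effect is assessed in tumor-bearing animals. Survival in the compound arm is compared with a vehicle-dosed control arm and expressed as their quotient.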

[1] = endpoint: mean survival time, dose: 50.0 mg/kg/injection, schedule: Q01DX009 (ip), vehicle: Klucel (hydroxypropylcellulose) (HPC)
[2] = endpoint: mean survival time, dose: 100.0 mg/kg/injection, schedule: Q01DX009 (ip), vehicle: Klucel (hydroxypropylcellulose) (HPC)
[3] = endpoint: mean survival time, dose: 100.0 mg/kg/injection, schedule: Q04DX002 (ip), vehicle: Klucel (hydroxypropylcellulose) (HPC)
[4] = endpoint: mean survival time, dose: 200.0 mg/kg/injection, schedule: Q01DX009 (ip), vehicle: Klucel (hydroxypropylcellulose) (HPC)
[5] = endpoint: mean survival time, dose: 200.0 mg/kg/injection, schedule: Q04DX002 (ip), vehicle: Klucel (hydroxypropylcellulose) (HPC)
[6] = endpoint: mean survival time, dose: 400.0 mg/kg/injection, schedule: Q04DX002 (ip), vehicle: Klucel (hydroxypropylcellulose) (HPC)
[7] = endpoint: mean survival time, dose: 100.0 mg/kg/injection, schedule: Q01DX001 (ip), vehicle: carboxymethylcellulose (CMC)
[8] = endpoint: mean survival time, dose: 200.0 mg/kg/injection, schedule: Q01DX001 (ip), vehicle: carboxymethylcellulose (CMC)
[9] = endpoint: mean survival time, dose: 400.0 mg/kg/injection, schedule: Q01DX001 (ip), vehicle: carboxymethylcellulose (CMC)
[10] = endpoint: mean survival time, dose: 100.0 mg/kg/injection, schedule: Q04DX003 (ip), vehicle: saline
[11] = endpoint: mean survival time, dose: 400.0 mg/kg/injection, schedule: Q04DX003 (ip), vehicle: saline
[12] = endpoint: mean survival time, dose: 100.0 mg/kg/injection, schedule: Q01DX009 (ip), vehicle: saline
[13] = endpoint: mean survival time, dose: 200.0 mg/kg/injection, schedule: Q01DX009 (ip), vehicle: saline
[14] = endpoint: mean survival time, dose: 400.0 mg/kg/injection, schedule: Q01DX009 (ip), vehicle: saline
[15] = endpoint: mean survival time, dose: 100.0 mg/kg/injection, schedule: Q04DX003 (ip), vehicle: Klucel (hydroxypropylcellulose) (HPC)
[16] = endpoint: mean survival time, dose: 200.0 mg/kg/injection, schedule: Q04DX003 (ip), vehicle: Klucel (hydroxypropylcellulose) (HPC)
[17] = endpoint: mean survival time, dose: 200.0 mg/kg/injection, schedule: Q04DX003 (ip), vehicle: saline
[18] = endpoint: mean survival time, dose: 100.0 mg/kg/injection, schedule: Q01DX001 (ip), vehicle: saline
[19] = endpoint: mean survival time, dose: 200.0 mg/kg/injection, schedule: Q01DX001 (ip), vehicle: saline
[20] = endpoint: mean survival time, dose: 400.0 mg/kg/injection, schedule: Q01DX001 (ip), vehicle: saline
[21] = endpoint: mean survival time, dose: 400.0 mg/kg/injection, schedule: Q04DX003 (ip), vehicle: Klucel (hydroxypropylcellulose) (HPC)
[22] = endpoint: mean survival time, dose: 100.0 mg/kg/injection, schedule: Q04DX003 (ip), vehicle: saline with Tween-80
[23] = endpoint: mean survival time, dose: 200.0 mg/kg/injection, schedule: Q04DX003 (ip), vehicle: saline with Tween-80
[24] = endpoint: mean survival time, dose: 400.0 mg/kg/injection, schedule: Q04DX003 (ip), vehicle: saline with Tween-80
[25] = endpoint: mean survival time, dose: 100.0 mg/kg/injection, schedule: Q01DX009 (ip), vehicle: saline with Tween-80
[26] = endpoint: mean survival time, dose: 200.0 mg/kg/injection, schedule: Q01DX009 (ip), vehicle: saline with Tween-80
[27] = endpoint: mean survival time, dose: 50.0 mg/kg/injection, schedule: Q01DX001 (ip), vehicle: carboxymethylcellulose (CMC)
[28] = endpoint: mean survival time, dose: 400.0 mg/kg/injection, schedule: Q01DX009 (ip), vehicle: saline with Tween-80
[29] = endpoint: mean survival time, dose: 400.0 mg/kg/injection, schedule: Q01DX009 (ip), vehicle: Klucel (hydroxypropylcellulose) (HPC)

Measured: T/C

O=C(Nc1ccc(S(=O)(=O)Nc2ccc(N=Nc3ccc(N=Nc4ccccc4)cc3)cc2)cc1)C(N1CC1)(N1CC1)N1CC1
inactive: endpoint: mean survival time, dose: 15.0 mg/kg/injection, schedule: Q01DX001 (ip), vehicle: saline 104 % of control | endpoint: mean survival time, dose: 30.0 mg/kg/injection, schedule: Q01DX001 (ip), vehicle: saline 117 % of control | endpoint: mean survival time, dose: 60.0 mg/kg/injection, schedule: Q01DX001 (ip), vehicle: saline 102 % of control

Cc1nc([N+](=O)[O-])cn1CCN1CCOCC1
inactive: [1] 102 % of control | [2] 94 % of control | [3] 92 % of control | [4] 102 % of control | [5] 105 % of control | [6] 105 % of control

CC12CCN=C1c1ccc3cc(O)ccc3c1CC2 (configuration not stated)
inactive: endpoint: mean survival time, dose: 100.0 mg/kg/injection, schedule: Q04DX003 (sc), vehicle: steriod suspending solution 93 % of control | endpoint: mean survival time, dose: 200.0 mg/kg/injection, schedule: Q04DX003 (sc), vehicle: steriod suspending solution 107 % of control | endpoint: mean survival time, dose: 400.0 mg/kg/injection, schedule: Q04DX003 (sc), vehicle: steriod suspending solution 96 % of control

COC(=O)/C=C/Nc1ccccc1
inactive: endpoint: mean survival time, dose: 100.0 mg/kg/injection, schedule: Q04DX003 (ip), vehicle: other 98 % of control | endpoint: mean survival time, dose: 200.0 mg/kg/injection, schedule: Q04DX003 (ip), vehicle: other 98 % of control | endpoint: mean survival time, dose: 400.0 mg/kg/injection, schedule: Q04DX003 (ip), vehicle: other 94 % of control

Nc1c(F)c(F)c(N=Nc2ccccc2)c(F)c1F
inactive: [7] 95 % of control | [8] 96 % of control | [9] 95 % of control

COC(=O)CCC(=O)Nc1cccc2cnccc12
inactive: [10] 102 % of control | [11] 102 % of control

OCCN1CCN(CCCN2c3ccccc3Sc3cccnc32)CC1
inactive: endpoint: mean survival time, dose: 4.68 mg/kg/injection, schedule: Q01DX009 (ip), vehicle: saline 94 % of control | endpoint: mean survival time, dose: 9.37 mg/kg/injection, schedule: Q01DX009 (ip), vehicle: saline 104 % of control | endpoint: mean survival time, dose: 18.75 mg/kg/injection, schedule: Q01DX009 (ip), vehicle: saline 113 % of control | endpoint: mean survival time, dose: 20.0 mg/kg/injection, schedule: Q01DX009 (ip), vehicle: saline 111 % of control | endpoint: mean survival time, dose: 37.5 mg/kg/injection, schedule: Q01DX009 (ip), vehicle: saline 115 % of control | endpoint: mean survival time, dose: 40.0 mg/kg/injection, schedule: Q01DX009 (ip), vehicle: saline 112 % of control | endpoint: mean survival time, dose: 75.0 mg/kg/injection, schedule: Q01DX009 (ip), vehicle: saline 107 % of control | endpoint: median survival time, dose: 20.0 mg/kg/injection, schedule: Q01DX009 (ip), vehicle: saline 113 % of control | endpoint: median survival time, dose: 40.0 mg/kg/injection, schedule: Q01DX009 (ip), vehicle: saline 112 % of control

OC(Cc1ccnc2ccccc12)C(Cl)(Cl)Cl (configuration not stated)
inactive: [12] 95 % of control | [13] 101 % of control | [14] 95 % of control

O=S(=O)(O)c1ccc(O)cc1
inactive: endpoint: mean survival time, dose: 50.0 mg/kg/injection, schedule: Q04DX003 (ip), vehicle: Klucel (hydroxypropylcellulose) (HPC) 98 % of control | [12] 110 % of control | [15] 104 % of control | [10] 114 % of control | [13] 107 % of control | [16] 124 % of control | [17] 97 % of control | [14] 101 % of control | [11] 101 % of control

O=C(CC1CC2CCC1C2)Nc1ccccc1 (configuration not stated)
inactive: [18] 96 % of control | [19] 111 % of control | [20] 100 % of control

Nc1nc(-c2cccs2)cc(C(F)(F)F)n1
inactive: [15] 94 % of control | [16] 94 % of control | [21] 102 % of control

Cc1ccc(S(=O)(=O)NC(C(=O)O)C(C)C)cc1 (configuration not stated)
inactive: [22] 102 % of control | [23] 100 % of control | [24] 102 % of control

Clc1cccc2ccc(-c3cc4ccccc4s3)nc12
inactive: endpoint: mean survival time, dose: 50.0 mg/kg/injection, schedule: Q01DX001 (ip), vehicle: saline 102 % of control | [18] 101 % of control | [19] 101 % of control | [20] 106 % of control

S=c1[nH]c2ccccc2n1CCc1ccncc1
inactive: [18] 100 % of control | [19] 97 % of control | [20] 95 % of control

CN(C)C(=O)N/N=C/c1ccc(Cl)cc1
inactive: [25] 95 % of control | [26] 92 % of control

N#CC(C(=O)c1ccccc1)c1cccc2ccccc12 (configuration not stated)
inactive: [1] 101 % of control | [2] 95 % of control | [15] 95 % of control | [4] 103 % of control | [16] 91 % of control | [21] 91 % of control

O=C(O)C1(Nc2ccc(-c3ccc(NC4(C(=O)O)CCCC4)cc3)cc2)CCCC1
inactive: [27] 90 % of control | [7] 90 % of control | [8] 88 % of control | [9] 88 % of control

Cc1cccc(NC(=O)c2ccccc2Cl)c1C
inactive: [25] 103 % of control | [22] 95 % of control | [26] 95 % of control | [23] 93 % of control | [28] 104 % of control | [24] 91 % of control

O=C(Nc1cccc2ccccc12)SCc1ccccc1
inactive: [3] 94 % of control | [6] 90 % of control

CCCCC/C(=C\c1ccccc1)C1OCC(CCl)O1 (configuration not stated)
inactive: endpoint: mean survival time, dose: 222.0 mg/kg/injection, schedule: Q01DX Z (ip), vehicle: saline 100 % of control | endpoint: mean survival time, dose: 333.0 mg/kg/injection, schedule: Q01DX Z (ip), vehicle: saline 100 % of control | endpoint: mean survival time, dose: 500.0 mg/kg/injection, schedule: Q01DX Z (ip), vehicle: saline 109 % of control

CC1(C)CC(=O)C(C)(C)C(=O)C1
inactive: endpoint: mean survival time, dose: 6.25 mg/kg/injection, schedule: Q01DX009 (ip), vehicle: saline with Tween-80 103 % of control | endpoint: mean survival time, dose: 12.5 mg/kg/injection, schedule: Q01DX009 (ip), vehicle: saline with Tween-80 98 % of control | endpoint: mean survival time, dose: 25.0 mg/kg/injection, schedule: Q04DX003 (ip), vehicle: saline with Tween-80 102 % of control

O=C(/C=C\c1ccccc1)OCc1ccccc1CN1C=CCC1
inactive: [3] 86 % of control | [5] 104 % of control | [6] 86 % of control

O=c1[nH][nH]c(=O)c2nc3ccccc3nc12
inactive: [2] 97 % of control | [15] 94 % of control | [4] 100 % of control | [16] 97 % of control | [29] 93 % of control | [21] 92 % of control

CCOC(CCc1c(-c2ccc([N+](=O)[O-])cc2)nc(N)[nH]c1=O)OCC
inactive: [25] 95 % of control | [26] 111 % of control | [28] 95 % of control

CSC(N)=Nc1cccc2c1CCCC2
inactive: endpoint: mean survival time, dose: 50.0 mg/kg/injection, schedule: Q01DX009 (ip), vehicle: saline 98 % of control | endpoint: mean survival time, dose: 50.0 mg/kg/injection, schedule: Q04DX003 (ip), vehicle: saline 102 % of control | [12] 98 % of control | [10] 88 % of control | [17] 92 % of control

COCCCNP1(=O)OCC(C)([N+](=O)[O-])CO1 (configuration not stated)
inactive: [27] 100 % of control | [7] 94 % of control | [8] 94 % of control | [9] 92 % of control

CCC(Cc1c[nH]c2ccccc12)[N+](=O)[O-] (configuration not stated)
inactive: [2] 104 % of control | [4] 111 % of control | [29] 113 % of control
